Experimental data from patent US11173145B2, “Compounds useful as inhibitors of indoleamine 2,3-dioxygenase and/or tryptophan dioxygenase” (Board of Regents, The University of Texas System, priority 2017, dated 2021).

Biological target: T1, IDO1 (Homo sapiens, UniProt P14902)
T1 construct: endogenous in cells; host or cells: HeLa cells (ATCC), IFNgamma-induced
Assay: IDO1 cell-based assay (HeLa cells, IFNgamma-induced, N-formylkynurenine/L-tryptophan by RFMS)
Details: 10 ng/mL IFNgamma, 24 hours
Method: HeLa cells were obtained from the American Type Culture Collection (ATCC) and maintained in DMEM media containing 10% FBS. Cells (7,000/well) were seeded onto a 384 well plate in 50 μL of media and incubated at 37° C., 5% CO2 overnight. Cell media was aspirated, fresh media containing 10 ng/mL IFNgamma was added, and cells were incubated in absence or presence of various concentrations of test compound (final 0.5% DMSO) for 24 hours. Aliquots of the cell conditioned media were removed from the cell plate, and mixed with an equal volume of 200 mM ZnSO4 to precipitate media containing proteins. Two volumes of acetonitrile were added, mixed, and samples were then centrifuged at 2250G for 20 minutes at 4° C. Aliquots of the supernatant were diluted 1:10 in 0.1% formic acid containing 3 μM of deuterated Tryptophan as an internal standard.
Samples were analyzed via RFMS to quantify N-Formyl Kynurenine (AUC) and L-tryptophan (AUC). A C18 cartridge was used with mobile phases of 0.1% Formic Acid and 80% ACN/0.1% Formic Acid under isocratic conditions. Dose-response curves were analyzed using IC50 regression curve fitting (GeneData Screener). […] Cell viability was also assessed using the Cell Titer Glo Kit (Promega) following manufacturer recommendation.

T1 sequence (P14902 whole entry): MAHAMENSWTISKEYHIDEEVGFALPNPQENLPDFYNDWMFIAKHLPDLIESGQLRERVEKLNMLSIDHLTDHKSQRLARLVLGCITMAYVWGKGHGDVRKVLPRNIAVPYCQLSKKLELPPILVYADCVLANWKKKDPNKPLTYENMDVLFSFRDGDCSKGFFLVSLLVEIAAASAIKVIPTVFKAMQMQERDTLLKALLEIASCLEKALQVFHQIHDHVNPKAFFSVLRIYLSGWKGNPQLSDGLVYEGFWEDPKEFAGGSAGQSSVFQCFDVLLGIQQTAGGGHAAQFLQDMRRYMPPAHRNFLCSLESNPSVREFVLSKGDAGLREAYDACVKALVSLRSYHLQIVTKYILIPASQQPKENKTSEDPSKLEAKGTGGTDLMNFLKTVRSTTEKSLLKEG

| IC50 [nM] | SMILES |
| --- | --- |
| < 200 | CC[C@@H](NC(=O)c1ccc(C#N)cc1)[C@H]1[C@@H]2C[C@@H](n3nnc(C(=O)OC)c3C(=O)OC)C[C@@H]21 [Compound 300, dimethyl 1-((1R,3S,5S,6r)-6-((R)-1-(4-cyanobenzamido)propyl)bicyclo[3.1.0]hexan-3-yl)-1H-1,2,3-triazole-4,5-dicarboxylate] |
| < 200 | O=C(Cc1ccc(Cl)cc1)NC1[C@H]2C[C@H](Oc3ccnc4ccc(F)cc34)C[C@@H]12 (stereo partly drawn) [Compound 7, 2-(4-chlorophenyl)-N-((1R,3s,5S,6r)-3-((6-fluoroquinolin-4-yl)oxy)bicyclo[3.1.0]hexan-6-yl)acetamide] |
| > 5000 | COc1ccc(C(=O)NC(C)[C@H]2[C@@H]3C[C@@H](O)C[C@@H]32)cn1 (stereo partly drawn) [Compound 128, N-(1-((1R,3s,5S,6r)-3-hydroxybicyclo[3.1.0]hexan-6-yl)ethyl)-6-methoxynicotinamide] |
| < 200 | CCC(NC(=O)c1ccc(Cl)cc1)[C@H]1[C@@H]2C[C@@H](n3cnc4cc(Cl)ccc4c3=O)C[C@@H]21 (stereo partly drawn) [Compound 53, 4-chloro-N-(1-((1R,3s,5S,6r)-3-(7-chloro-4-oxoquinazolin-3(4H)-yl)bicyclo[3.1.0]hexan-6-yl)propyl)benzamide] |
| < 200 | Cc1ccc(C(=O)NC[C@@H]2[C@H]3C[C@H](n4cnc5cc(F)c(F)cc54)C[C@@H]23)cc1 [Compound 322, N-(((1R,3s,5S,6r)-3-(5,6-difluoro-1H-benzo[d]imidazol-1-yl)bicyclo[3.1.0]hexan-6-yl)methyl)-4-methylbenzamide] |
| < 200 | CC[C@@H](NC(=O)Nc1ccc(Cl)cc1)[C@H]1[C@@H]2C[C@@H](n3cnc4cc(F)c(F)cc43)C[C@@H]21 [Compound 344, 1-(4-chlorophenyl)-3-((R)-1-((1R,3S,5S,6r)-3-(5,6-difluoro-1H-benzo[d]imidazol-1-yl)bicyclo[3.1.0]hexan-6-yl)propyl)urea] |
| 200 to 2000 | O=C(NC1C2CC(Oc3ccnc4ccccc34)CC21)c1ccc(Cl)cc1 (stereo not drawn) [Compound 26, 4-chloro-N-(3-(quinolin-4-yloxy)bicyclo[3.1.0]hexan-6-yl)benzamide] |
| < 200 | CCC(NC(=O)c1ccc(Cl)cc1)[C@H]1[C@@H]2C[C@@H](Oc3ncnc4ccc(F)cc34)C[C@@H]21 (stereo partly drawn) [Compound 5, 4-chloro-N-(1-((1R,3s,5S,6r)-3-((6-fluoroquinazolin-4-yl)oxy)bicyclo[3.1.0]hexan-6-yl)propyl)benzamide] |
| > 5000 | CC[C@@H](NC(=O)NC1COC1)[C@H]1[C@@H]2C[C@@H](n3cnc4cc(F)c(F)cc43)C[C@@H]21 [Compound 353, 1-((R)-1-((1R,3S,5S,6r)-3-(5,6-difluoro-1H-benzo[d]imidazol-1-yl)bicyclo[3.1.0]hexan-6-yl)propyl)-3-(oxetan-3-yl)urea] |
| < 200 | CC(NC(=O)c1ccc(Cl)cc1)[C@H]1[C@@H]2C[C@@H](Oc3ncnc4ccc(F)cc34)C[C@@H]21 (stereo partly drawn) [Compound 64, 4-chloro-N-(1-((1R,3s,5S,6r)-3-((6-fluoroquinazolin-4-yl)oxy)bicyclo[3.1.0]hexan-6-yl)ethyl)benzamide] |
| < 200 | CC[C@@H](NC(=O)c1ccc(Cl)cc1)[C@H]1[C@@H]2C[C@@H](n3cc(I)cn3)C[C@@H]21 [Compound 304, 4-chloro-N-((R)-1-((1R,3S,5S,6r)-3-(4-iodo-1H-pyrazol-1-yl)bicyclo[3.1.0]hexan-6-yl)propyl)benzamide] |
| < 200 | CC(C(=O)Nc1ccc(Cl)c(F)c1)[C@H]1[C@@H]2C[C@@H](n3cnc4cc(F)c(F)cc43)C[C@@H]21 (stereo partly drawn) [Compound 345, N-(4-chloro-3-fluorophenyl)-2-((1R,3s,5S,6r)-3-(5,6-difluoro-1H-benzo[d]imidazol-1-yl)bicyclo[3.1.0]hexan-6-yl)propanamide] |
| 2000 to 5000 | CCC(NC(=O)c1cnc(OC)nc1)[C@H]1[C@@H]2C[C@@H](Oc3ncnc4ccc(F)cc34)C[C@@H]21 (stereo partly drawn) [Compound 68, N-(1-((1R,3s,5S,6r)-3-((6-fluoroquinazolin-4-yl)oxy)bicyclo[3.1.0]hexan-6-yl)propyl)-2-methoxypyrimidine-5-carboxamide] |
| < 200 | CC[C@@H](NC(=O)c1ccc(C)nc1)[C@H]1[C@@H]2C[C@@H](n3cnc4cc(F)c(F)cc43)C[C@@H]21 [Compound 311, N-((R)-1-((1R,3S,5S,6r)-3-(5,6-difluoro-1H-benzo[d]imidazol-1-yl)bicyclo[3.1.0]hexan-6-yl)propyl)-6-methylnicotinamide] |
| < 200 | CCC(NC(=O)c1ccc(Cl)cc1)[C@H]1[C@@H]2C[C@@H](Oc3cccc4cccnc34)C[C@@H]21 (stereo partly drawn) [Compound 43, 4-chloro-N-(1-((1R,3s,5S,6r)-3-(quinolin-8-yloxy)bicyclo[3.1.0]hexan-6-yl)propyl)benzamide] |
| 200 to 2000 | CCC(NC(=O)c1ccc(Cl)cn1)C1[C@H]2CC(Oc3cnnc4ccccc34)C[C@@H]12 (stereo partly drawn) [Compound 77, 5-chloro-N-(1-((1R,5S)-3-(cinnolin-4-yloxy)bicyclo[3.1.0]hexan-6-yl)propyl)picolinamide] |
| < 200 | CC[C@@H](NC(=O)c1ccc(Cl)cc1)[C@H]1[C@@H]2C[C@@H](Nc3ccccc3C#N)C[C@@H]21 [Compound 331, 4-chloro-N—((R)-1-((1R,3S,5S, 6r)-3-((2-cyanophenyl)amino)bicyclo[3.1.0]hexan-6-yl)propyl)benzamide] |
| < 200 | CC[C@@H](NC(=O)N1CCC(F)(F)CC1)[C@H]1[C@@H]2C[C@@H](n3cnc4cc(F)c(F)cc43)C[C@@H]21 [Compound 355, N-((R)-1-((1R,3S,5S,6r)-3-(5,6-difluoro-1H-benzo[d]imidazol-1-yl)bicyclo[3.1.0]hexan-6-yl)propyl)-4,4-difluoropiperidine-1-carboxamide] |
| < 200 | CCC(NC(=O)c1ccc(Cl)cc1)[C@H]1[C@@H]2C[C@@H](Oc3ccc(F)cc3)C[C@@H]21 (stereo partly drawn) [Compound 14, 4-chloro-N-(1-((1R,3s,5S,6r)-3-(4-fluorophenoxy)bicyclo[3.1.0]hexan-6-yl)propyl)benzamide] |
| 200 to 2000 | CC(NC(=O)c1ccc(C#N)cc1)[C@H]1[C@@H]2C[C@@H](n3cc(C4CC4)nn3)C[C@@H]21 (stereo partly drawn) [Compound 129, 4-cyano-N-(1-((1R,3s,5S,6r)-3-(4-cyclopropyl-1H-1,2,3-triazol-1-yl)bicyclo[3.1.0]hexan-6-yl)ethyl)benzamide] |
| 200 to 2000 | CCC(NC(=O)c1ccc(Cl)cc1)[C@H]1[C@@H]2C[C@@H](n3cncn3)C[C@@H]21 (stereo partly drawn) [Compound 81, N-(1-((1R,3s,5S,6r)-3-(1H-1,2,4-triazol-1-yl)bicyclo[3.1.0]hexan-6-yl)propyl)-4-chlorobenzamide] |
| < 200 | CC[C@@H](NC(=O)c1ccc(Cl)cc1)[C@H]1[C@@H]2C[C@@H](n3cc(C#N)cn3)C[C@@H]21 [Compound 325, 4-chloro-N-((R)-1-((1R,3S,5S,6r)-3-(4-cyano-1H-pyrazol-1-yl)bicyclo[3.1.0]hexan-6-yl)propyl)benzamide] |
| < 200 | O=C(NC[C@@H]1[C@H]2C[C@H](n3cnc4cc(F)c(F)cc43)C[C@@H]12)c1ccc(Cl)c(F)c1 [Compound 315, 4-chloro-N-(((1R,3s,5S,6r)-3-(5,6-difluoro-1H-benzo[d]imidazol-1-yl)bicyclo[3.1.0]hexan-6-yl)methyl)-3-fluorobenzamide] |
| < 200 | COCC(NC(=O)c1ccc(Cl)cc1)[C@H]1[C@@H]2C[C@@H](n3cc(C4CC4)nn3)C[C@@H]21 (stereo partly drawn) [Compound 173, 4-chloro-N-(1-((1R,3s,5S,6r)-3-(4-cyclopropyl-1H-1,2,3-triazol-1-yl)bicyclo[3.1.0]hexan-6-yl)-2-methoxyethyl)benzamide] |
| > 5000 | Clc1ccc(-c2nnc(C3C4CC(Oc5ccnc6ccccc56)CC43)o2)cc1 (stereo not drawn) [Compound 11, 2-(4-chlorophenyl)-5-(3-(quinolin-4-yloxy)bicyclo[3.1.0]hexan-6-yl)-1,3,4-oxadiazole] |
| < 200 | COc1ccc(C(=O)NC(C)[C@H]2[C@@H]3C[C@@H](Oc4ncnc5ccc(F)cc45)C[C@@H]32)cn1 (stereo partly drawn) [Compound 115, N-(1-((1R,3s,5S,6r)-3-((6-fluoroquinazolin-4-yl)oxy)bicyclo[3.1.0]hexan-6-yl)ethyl)-6-methoxynicotinamide] |
| 200 to 2000 | CC[C@@H](NC(=O)C1(C(F)(F)F)CC1)[C@H]1[C@@H]2C[C@@H](n3cnc4cc(F)c(F)cc43)C[C@@H]21 [Compound 352, N-((R)-1-((1R,3S,5S,6r)-3-(5,6-difluoro-1H-benzo[d]imidazol-1-yl)bicyclo[3.1.0]hexan-6-yl)propyl)-1-(trifluoromethyl)cyclopropane-1-carboxamide] |

| SMILES | IC50 [nM] |
| --- | --- |
| CC(NC(=O)c1ccc(C#N)cc1)[C@H]1[C@@H]2C[C@@H](NC(=O)c3ccccn3)C[C@@H]21 (stereo partly drawn) [Compound 143, N-((1R,3s,5S,6r)-6-(1-(4-cyanobenzamido)ethyl)bicyclo[3.1.0]hexan-3-yl)picolinamide] | < 200 |
| CC(NC(=O)c1ccc(C#N)cc1)C1[C@H]2CC(O)C[C@@H]12 (stereo partly drawn) [Compound 106, 4-cyano-N-(1-((1R,3s,5S,6r)-3-hydroxybicyclo[3.1.0]hexan-6-yl)ethyl)benzamide] | > 5000 |
| CC(NC(=O)c1ccc(C#N)cc1)C1[C@H]2CC(Oc3ncnc4ccc(F)cc34)C[C@@H]12 (stereo partly drawn) [Compound 107, 4-cyano-N-(1-((1R,3s,5S,6r)-3-((6-fluoroquinazolin-4-yl)oxy)bicyclo[3.1.0]hexan-6-yl)ethyl)benzamide] | < 200 |
